The record followed here is US20240207421A1, “NERVE TARGETING PEPTIDES AND METHODS OF USE” (ALUME BIOSCIENCES, INC., priority 2020, published 2024).

Sequence of Human MPZ (P25189 30-153 limits assumed): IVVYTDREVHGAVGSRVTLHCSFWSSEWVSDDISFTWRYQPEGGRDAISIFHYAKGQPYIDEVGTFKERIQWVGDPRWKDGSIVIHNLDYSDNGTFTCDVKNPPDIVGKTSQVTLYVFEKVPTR

The subject of the first assay is Human MPZ. Briefly: Phage display library screening (Example 2, Python script analysis), binding to Human MPZ. The following applies: combined unique sequence count, Python/R script analysis. How it is done:
(§1) Phage display library screens were used to identify peptides that bind to target proteins (including specific laminin trimers) that are expressed in human nerves, as described in Table 3. These screens were also carried out to identify peptides that could bind selectively to nerves versus muscle. Such peptides could therefore be useful for systemic in-vivo labeling of nerves during fluorescence assisted surgery. Specifically, m 13 phage libraries expressing 7 or 12 random amino acid peptides, or a cyclic peptide CX7C, on the N-terminus of the minor coat protein pIII (New England Biolabs; NEB) were processed through multiple rounds of selection for binding to target proteins expressed in nerves, or to excised human nerves, nerve extracts, or muscle, as described further below.
(§2) For screening against the specified target proteins in Table 1, including LN211, LN411, LN421, and LN521, the phage library was processed by up to 4 binding and wash cycles. For selection, phage libraries were incubated for up to 24 hours at 4° C. in 96 well plates that had been coated with one of the target proteins. Plates were then washed with PBS and phage were eluted using 0.2M glycine pH 2.0. Phage supernatants where then neutralized with Tris pH 9.0 prior to plating on TGI bacteria and LB agar plates. Colonies were counted to determine titer followed by DNA preparation of pools of phage and NextGen sequencing. After rounds of selection, phage were pooled and amplified for iterative selection. Phage that were bound at each round were sequenced. NextGen sequencing of pools after 2, 3 and 4 rounds of selection was used to isolate candidate sequences that were analyzed further to identify those that specifically bound each unique target protein.
(§3) Python Script Analysis: For all NEB sequence datasets, a python script was used to translate, trim, and filter the peptide sequences. The script translated the nucleotide sequences, translating amber codons as glutamine in peptide sequences, and then trimmed the end sequences that come from the vector. Secondly, the script combined the unique counts of trimmed peptides with identical sequences. […] Another python script was used to group peptides from different assays according to protein target (Myelin Protein Zero, Myelin Proteolipid Protein, Myelin Basic Protein, and Nidogen-2) and also combine the unique sequence counts for each peptide. An R script was written to merge the peptide sequences from different data files and determine peptides specific for each protein target but absent from different protein binding datasets. Peptide sequences were ranked by unique sequence count.
“EGHVWSEYTWGT (Human MPZ-binding peptide)”: the Count is 37.

Take SPNTNSH (Human MPZ-binding peptide): the Count is 40.

Turning to STHEWRT (Human MPZ-binding peptide), the Count is on record as 45.

As to SVAYVPV (Human MPZ-binding peptide), the Count is 46.

Regarding SYLPPFI (Human MPZ-binding peptide), the Count is on record as 41.

For the substance THSTDLS (Human MPZ-binding peptide), the Count is 37.

For TLLHYSA (Human MPZ-binding peptide), the Count turned out to be 40.

TTLVVTA (Human MPZ-binding peptide): the Count is given as 42.

In the case of “TTNVTEIERESY (Human MPZ-binding peptide)”, the Count is recorded as 37.

Take TTWPNTA (Human MPZ-binding peptide): the Count was 45.

Regarding VHTPYRS (Human MPZ-binding peptide), the Count stood at 41.

For VPLAYLR (Human MPZ-binding peptide), the Count came to 40.

VVPLKWI (Human MPZ-binding peptide): the Count is on record as 40.

Consider WMTNLDP (Human MPZ-binding peptide), for which the Count is given as 43.

WPRPIQI (Human MPZ-binding peptide): the Count is given as 41.

For WTSVATA (Human MPZ-binding peptide), the Count came to 41.

Turning to YAPWRVF (Human MPZ-binding peptide), the Count stood at 37.

On to YEGERGA (Human MPZ-binding peptide), for which the Count worked out at 39.

Take YGQSITE (Human MPZ-binding peptide): the Count came out at 37.

Turning to YMKHSPG (Human MPZ-binding peptide), the Count came out at 45.

In the case of YPQARTS (Human MPZ-binding peptide), the Count is 46.

YSSLTSN (Human MPZ-binding peptide): the Count was determined as 38.

With “YTPNWHFRWMPA (Human MPZ-binding peptide)”, the Count is on record as 60.

The next assay relates to Human Myelin PLP. Briefly: Phage display library screening (Example 2, Python script analysis), binding to Human Myelin PLP. The following applies: combined unique sequence count, Python/R script analysis. As for the experimental part:
as §1, §2, §3
On to AHQSSVT (Myelin PLP-binding peptide), for which the Count came to 42.

Consider ALFQERK (Myelin PLP-binding peptide), for which the Count is 27.

For AQASSAR (Myelin PLP-binding peptide), the Count is 27.

Consider ARFVPLT (Myelin PLP-binding peptide), for which the Count amounted to 30.

For the substance ASLTLAL (Myelin PLP-binding peptide), the Count was determined as 26.

As to AVVAMNK (Myelin PLP-binding peptide), the Count was determined as 28.

In the case of DGSRDLV (Myelin PLP-binding peptide), the Count was determined as 30.

As to DRHEGHR (Myelin PLP-binding peptide), the Count is on record as 26.

As to EKSTTVA (Myelin PLP-binding peptide), the Count came to 30.

For the substance EPSSFTF (Myelin PLP-binding peptide), the Count amounted to 31.

Regarding EVLYPNN (Myelin PLP-binding peptide), the Count was determined as 27.

Take FRIDKSM (Myelin PLP-binding peptide): the Count is 26.

Consider FSLDRDG (Myelin PLP-binding peptide), for which the Count was determined as 29.

As for FSTPTNV (Myelin PLP-binding peptide), the Count turned out to be 29.

Turning to GHLQSLF (Myelin PLP-binding peptide), the Count stood at 26.

GIPSSKN (Myelin PLP-binding peptide): the Count is recorded as 28.

In the case of GKSYSQI (Myelin PLP-binding peptide), the Count is on record as 31.

As for GLWGPSL (Myelin PLP-binding peptide), the Count is on record as 26.

As to GNVFQTS (Myelin PLP-binding peptide), the Count came out at 31.

GPAAVII (Myelin PLP-binding peptide): the Count is on record as 29.

As to GSAWKKH (Myelin PLP-binding peptide), the Count is 44.

Regarding GWSTAIR (Myelin PLP-binding peptide), the Count was found to be 29.

Take HKAPLGT (Myelin PLP-binding peptide): the Count was determined as 29.

As to HLHTRPT (Myelin PLP-binding peptide), the Count is on record as 27.

For the substance IDRVRGL (Myelin PLP-binding peptide), the Count is 29.

Consider IHHLESS (Myelin PLP-binding peptide), for which the Count amounted to 32.

For IIPPTSV (Myelin PLP-binding peptide), the Count is reported as 31.

On to IRPTHNG (Myelin PLP-binding peptide), for which the Count is given as 27.

For KGVIPAT (Myelin PLP-binding peptide), the Count came out at 27.

For KPSASIY (Myelin PLP-binding peptide), the Count turned out to be 26.

Take LHQTYRP (Myelin PLP-binding peptide): the Count was 27.

Consider LMQKPSI (Myelin PLP-binding peptide), for which the Count worked out at 29.

Consider LNGISAL (Myelin PLP-binding peptide), for which the Count is recorded as 32.

On to LPHRLNP (Myelin PLP-binding peptide), for which the Count was 27.

As for LPLRLHA (Myelin PLP-binding peptide), the Count was determined as 31.

In the case of LPSHASI (Myelin PLP-binding peptide), the Count turned out to be 26.

On to LPVKNLL (Myelin PLP-binding peptide), for which the Count came to 26.

Turning to MKIMPMD (Myelin PLP-binding peptide), the Count was found to be 26.

Take MPHAPVQ (Myelin PLP-binding peptide): the Count is listed as 37.

In the case of NDASTVS (Myelin PLP-binding peptide), the Count came out at 28.

For the substance NIPSSIL (Myelin PLP-binding peptide), the Count is reported as 33.

For the substance NVFSATP (Myelin PLP-binding peptide), the Count came out at 31.

Turning to QLPRNNL (Myelin PLP-binding peptide), the Count is recorded as 28.

Take QPNMLKP (Myelin PLP-binding peptide): the Count is 33.

Regarding QRRSVIL (Myelin PLP-binding peptide), the Count is 31.

With RLQPEPT (Myelin PLP-binding peptide), the Count turned out to be 33.

With SALISTR (Myelin PLP-binding peptide), the Count was 32.

For the substance SAQSRSF (Myelin PLP-binding peptide), the Count turned out to be 26.

In the case of SGLHYAL (Myelin PLP-binding peptide), the Count was found to be 32.

In the case of SGVATYT (Myelin PLP-binding peptide), the Count came to 31.

For the substance SLNRGGA (Myelin PLP-binding peptide), the Count was 28.

SLPGYRH (Myelin PLP-binding peptide): the Count is on record as 28.

Turning to SLPSLLP (Myelin PLP-binding peptide), the Count was found to be 26.

SVEKYSK (Myelin PLP-binding peptide): the Count was 33.

Regarding SVLPDKL (Myelin PLP-binding peptide), the Count came out at 28.

For the substance SVMWMTP (Myelin PLP-binding peptide), the Count is listed as 29.

For the substance SVVYQNS (Myelin PLP-binding peptide), the Count was determined as 26.

Take SWDVLEL (Myelin PLP-binding peptide): the Count was 31.

Turning to TDVEMVP (Myelin PLP-binding peptide), the Count worked out at 40.

For TFPERLR (Myelin PLP-binding peptide), the Count is recorded as 31.

Regarding TGISSTP (Myelin PLP-binding peptide), the Count is listed as 27.

TKITPHR (Myelin PLP-binding peptide): the Count was 29.

Take TLWAQKT (Myelin PLP-binding peptide): the Count is on record as 28.

Regarding TMPIKAM (Myelin PLP-binding peptide), the Count worked out at 27.

Consider TQPRYPS (Myelin PLP-binding peptide), for which the Count is recorded as 28.

On to TRASYPQ (Myelin PLP-binding peptide), for which the Count is on record as 32.

Another assay deals with Laminin 421/521. Briefly: Phage display library screening (Example 2), NEB laminin-binding peptides. The following applies: Laminin 421/521, not 211 and 411; combined unique sequence count, Python/R script analysis. Set-up: species or system human. The essentials:
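M13 phage libraries (7- or 12-mer random or cyclic CX7C peptides on pIII) panned up to 4 rounds against plate-coated laminins LN211, LN411, LN421, LN521, 24 h at 4 °C; elution with 0.2M glycine pH 2.0. NextGen sequencing of pools after rounds 2–4; peptides binding 421/521 but not 211/411 identified.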
Consider “EGHVWSEYTWGT (Human MPZ-binding peptide)”, for which the Count is 50.
